Here are results for 2 compounds from US20200138890A1, “PHARMACEUTICAL COMPOSITION FOR PREVENTION AND TREATMENT OF PROSTATIC HYPERPLASIA AND ERECTILE DYSFUNCTION CAUSED BY ANDROPAUSE COMPRISING EXTRACT OF LESPEDEZA CUNEATA AND TRIGONELLAE SEMEN” (DUHANBIO CO., LTD., priority 2017, published 2020).

Molecules are shown by their SMILES. Structures can show the parent of a compound that is named as a salt.

In experiment [1] the test system is male SD rats with prostate gland hypertrophy induced by testosterone. Description: Inhibition of prostatic hyperplasia in vivo (testosterone-induced prostate gland hypertrophy, prostate weight). Conditions: testosterone 3 mg/kg/day s.c.; Examples 50 mg/kg oral, finasteride 2 mg/kg oral, 3 weeks.
Description: At this time, finasteride was used as the positive control group.
On the day of the last administration, the animals were weighed and then sacrificed, and blood was collected and the prostate glands were excised.
Experiment [2] deals with male SPF New Zealand albino rabbits. Kind of experiment: Erectile promoting effect in vivo (erection start time and duration). Also on record: species or system rabbit. The conditions noted are these: oral, Examples 50 mg/kg, sildenafil citrate 20 mg/kg. The method, then: Based on the above results, the effects on erectile promotion of the compositions of Examples 6 to 9 of the present invention in vivo were measured. At this time, sildenafil citrate was used as a positive control group. Specifically, as experimental animals, six male SPF New Zealand albino rabbits (about 3.5 to 4.0 kg body weight, Samtako, Korea) per test group were used, and these rabbits were placed in cages and fed a constant amount of conventional solid feed for rabbits and water under the same condition for 4 days or more. The rabbit was fasted for 48 hours or more and then used for the test. When fasting, the rabbits were allowed to drink water freely. To the rabbit prepared as described above, the compositions of Examples 6 to 9 of the present invention were orally administered at a dose of 50 mg/kg per animal. Meanwhile, sildenafil citrate, a positive control group, was orally administered at a dose of 20 mg/kg. After administration as described above, the erection start time and duration were measured.

Where [3] appears, read: listed as positive control group.

Consider `CC(C)(C)NC(=O)[C@H]1CC[C@H]2[C@@H]3CC[C@H]4NC(=O)C=C[C@]4(C)[C@H]3CC[C@]12C` [Finasteride, finasteride], for which, in experiment [1], the Prostate gland weight is recorded as 0.92 ± 0.11 g and the “Prostate gland/body weight (%)” value is 0.24 ± 0.02%.
As to `CCCc1nn(C)c2c(=O)[nH]c(-c3cc(S(=O)(=O)N4CCN(C)CC4)ccc3OCC)nc12` [sildenafil citrate], in experiment [2] (listed as Control group), the Erection maintenance time is 120 ± 5 min, the Erection start time worked out at 6.2 ± 1.1 min and the “Maximum Erection time” value is 19 ± 1 min. In experiment [2] (setting [3]), the Erection maintenance time was found to be 120 min, the Erection start time result is listed as “about 6 Min” and the “Maximum Erection time” value was “about 19 Min”.
